From PMC10243163, “A frog‐derived antimicrobial peptide as a potential anti‐biofilm agent in combating Staphylococcus aureus skin infection” (Journal of Cellular and Molecular Medicine, 2023)
≈ marks a conversion by molar mass, not a printed value. Positions of bridges follow the written chain, without caps; N, C: chain ends. Residues, ends and D or L forms follow the SMILES beside them.

Assays:
[1] = tested on: K. pneumoniae ATCC 43816; assay type: cell-based, Klebsiella pneumoniae; settings: ATCC 43816, 24 h
Protocol: (§1) Peptide solutions were first mixed with bacterial cultures (5 × 10^5 CFU/mL) and incubated at 37°C for 24 h. The planktonic bacterial cells were gently removed by washing with PBS the next day, and methanol was utilised to fix the biofilm. Crystal violet (0.1% v/v), PBS and acetic acid (30%, v/v) were subsequently used to stain biofilm, remove remaining stains and re‐dissolve stains, respectively. The absorbance was determined at 595 nm. The experiments were conducted in three independent runs.

[2] = tested on: MRSA NCTC 12493; assay type: cell-based, Methicillin‐resistant S. aureus; settings: NCTC 12493, 24 h
Protocol: (§2) The bacterial culture (5 × 10^5 CFU/mL) was cultured in a sterile 96‐well plate for 24 h to generate mature biofilms. The planktonic bacteria were removed by washing three times with sterile PBS buffer. Then, fresh broth with different peptide concentrations was added to each well and further incubated for another 24 h. Then, the plate was stained with crystal violet. The stain was solubilised in 30% acetic acid, and the absorbance was measured at 595 nm. The experiments were conducted in three independent runs.

[3] = tested on: P. aeruginosa ATCC 9027; assay type: cell-based, Pseudomonas aeruginosa; settings: ATCC 9027, 24 h
Protocol: as §2

[4] = tested on: MRSA NCTC 12493; assay type: cell-based, Methicillin‐resistant S. aureus
Protocol: (§3) Antimicrobial assays were conducted using standard broth micro‐dilutions, as mentioned previously.[11] Gram‐positive bacteria S. aureus (ATCC 6538), Methicillin‐resistant S. aureus (MRSA; NCTC 12493), […] (NCTC 12697), Gram‐negative bacteria Escherichia coli (ATCC 8739), Klebsiella pneumoniae (ATCC 43816), Pseudomonas aeruginosa (ATCC 9027), Acinetobacter baumannii (ATCC BAA 747), and yeast, Candida albicans (ATCC 10231) were used in the test. The experiments were conducted in three independent runs.

[5] = tested on: Gram‐positive and Gram‐negative test bacteria; assay type: cell-based; settings: geometric mean of MICs against the three Gram‐negative strains
[6] = tested on: C. albicans ATCC 10231; assay type: cell-based, Candida albicans
Protocol: as §3

[7] = tested on: Gram‐positive and Gram‐negative test bacteria; assay type: cell-based
Protocol: as §3

[8] = tested on: P. aeruginosa ATCC 9027; assay type: cell-based, Pseudomonas aeruginosa
Protocol: as §3

[9] = tested on: P. aeruginosa ATCC 9027; assay type: cell-based, Pseudomonas aeruginosa; settings: ATCC 9027, 24 h; remark: listed apart in the source
Protocol: as §1

[10] = tested on: E. coli ATCC 8739; assay type: cell-based, Escherichia coli; settings: ATCC 8739, 24 h
Protocol: as §2

[11] = tested on: S. aureus ATCC 6538; assay type: cell-based, Staphylococcus aureus; settings: ATCC 6538, 24 h
Protocol: as §1

[12] = tested on: E. coli ATCC 8739; assay type: cell-based, Escherichia coli; settings: ATCC 8739, 24 h; remark: listed apart in the source
Protocol: as §1

[13] = tested on: K. pneumoniae ATCC 43816; assay type: cell-based, Klebsiella pneumoniae
Protocol: as §3

[14] = tested on: E. faecalis NCTC 12697; assay type: cell-based; settings: NCTC 12697, 24 h
Protocol: as §2

[15] = tested on: S. aureus ATCC 6538; assay type: cell-based, Staphylococcus aureus
Protocol: as §3

[16] = tested on: E. faecalis NCTC 12697; assay type: cell-based
[17] = tested on: horse erythrocytes; experiment: Haemolytic activity; assay type: cell-based; settings: 128 μM peptide; horse erythrocytes 2% v/v, 37°C, 2 h; 0.1% Triton X‐100 positive control; absorbance 570 nm; three independent runs
Protocol: The haemolytic activity of peptides was conducted using horse erythrocytes (2%, v/v). Peptide solutions were mixed with washed horse erythrocyte suspension at 37°C for 2 h. Triton X‐100 (0.1%) was used as a positive control. The mixture was then centrifuged at 930 g for 5 min. The absorbance of the supernatants was detected at 570 nm. The haemolysis rate was calculated using the formula: Haemolysis%=Sample group−negative group/positive group−negative group×100%.
This experiment was performed in three independent runs.

[18] = tested on: MRSA NCTC 12493; assay type: cell-based, Methicillin‐resistant S. aureus; settings: NCTC 12493, 24 h; remark: listed apart in the source
Protocol: as §1

[19] = tested on: E. faecalis NCTC 12697; assay type: cell-based; settings: NCTC 12697, 24 h; remark: listed apart in the source
Protocol: as §1

[20] = tested on: E. coli ATCC 8739; assay type: cell-based, Escherichia coli
Protocol: as §3

[21] = tested on: K. pneumoniae ATCC 43816; assay type: cell-based, Klebsiella pneumoniae; settings: ATCC 43816, 24 h; remark: listed apart in the source
Protocol: as §2

[22] = tested on: S. aureus ATCC 6538; assay type: cell-based, Staphylococcus aureus; settings: ATCC 6538, 24 h; remark: listed apart in the source
Protocol: as §2

With `CC[C@H](C)[C@@H]1NC(=O)[C@H](CCCCN)NC(=O)[C@@H](NC(=O)[C@H](CC(C)C)NC(=O)[C@@H](NC(=O)[C@H](CCCCN)NC(=O)[C@@H]2CCCN2C(=O)[C@H](CC(C)C)NC(=O)[C@H](Cc2ccccc2)NC(=O)[C@H](CC(N)=O)NC(=O)[C@H](C)NC(=O)[C@H](C)NC(=O)[C@H](CC(C)C)NC(=O)CNC(=O)[C@H](C)NC(=O)[C@@H](NC(=O)[C@H](CC(C)C)NC(=O)[C@@H]2CCCN2C(=O)[C@@H](N)Cc2ccccc2)[C@@H](C)CC)[C@@H](C)CC)CSSC[C@@H](C(=O)O)NC(=O)[C@H](CCCCN)NC(=O)[C@H](CCCNC(=N)N)NC(=O)[C@H](C)NC1=O` [OG9] (H-FPLIAGLAANFLPKILCKIARKC-OH; disulfide 17-23) the MBIC [1] was >128/>128 μM, the MBEC [2] was > 128 µM and the MBEC [3] was >128/>128 μM. For the same compound, the MBC [4] was 32 µM (≈ 80 µg/mL), the MIC [4] was 16 µM (≈ 40 µg/mL) and the “GM MIC, G−” value [5] was 16 µM. The MBC [6] was > 128 µM, the MIC [6] was > 128 µM and the “GM MIC, total bacteria” value ([7]; geometric mean of MICs against all test bacteria) was 12.7 µM. The “GM MIC, G+” value ([7]; geometric mean of MICs against the three Gram‐positive strains) was 10.1 µM, the MBC [8] was 16 µM (≈ 40 µg/mL) and the MIC [8] was 16 µM (≈ 40 µg/mL). For the same compound, the MBIC [9] was >128/>128 μM, the MBEC [10] was > 128 µM and the MBIC [11] was 16 µM. It also gave an MBIC [12] of 32 µM, an MBC [13] of 64 µM (≈ 160 µg/mL) and an MIC [13] of 64 µM (≈ 160 µg/mL). For the same compound, the MBEC [14] was > 128 µM, the MBC [15] was 8 µM (≈ 20 µg/mL) and the MIC [15] was 4 µM (≈ 10 µg/mL). For the same compound, the MBC [16] was 16 µM (≈ 40 µg/mL), the MIC [16] was 16 µM (≈ 40 µg/mL) and the Haemolysis [17] was “around 85%”. The MBIC [18] was 16 µM, the MBIC [19] was 32 µM and the MBC [20] was 4 µM (≈ 10 µg/mL). The MIC [20] was 4 µM (≈ 10 µg/mL), the MBEC [21] was >128/>128 μM and the MBEC [22] was > 128 µM.
